Assay results: US20230391765A1, “HETEROBIFUNCTIONAL COMPOUNDS AS DEGRADERS OF ENL” (ICAHN SCHOOL OF MEDICINE AT MOUNT SINAI, priority 2020, published 2023)

Assays:
ENL = target: T1, ENL (Homo sapiens, UniProt Q03111); test: Western blot of ENL protein levels in MOLM13 cells; format: cell-based
T1 construct: Cells were lysed and expression of endogenous ENL was assessed by Western blot analysis; host or cells: MV4;11
T1 sequence (Q03111 1-559): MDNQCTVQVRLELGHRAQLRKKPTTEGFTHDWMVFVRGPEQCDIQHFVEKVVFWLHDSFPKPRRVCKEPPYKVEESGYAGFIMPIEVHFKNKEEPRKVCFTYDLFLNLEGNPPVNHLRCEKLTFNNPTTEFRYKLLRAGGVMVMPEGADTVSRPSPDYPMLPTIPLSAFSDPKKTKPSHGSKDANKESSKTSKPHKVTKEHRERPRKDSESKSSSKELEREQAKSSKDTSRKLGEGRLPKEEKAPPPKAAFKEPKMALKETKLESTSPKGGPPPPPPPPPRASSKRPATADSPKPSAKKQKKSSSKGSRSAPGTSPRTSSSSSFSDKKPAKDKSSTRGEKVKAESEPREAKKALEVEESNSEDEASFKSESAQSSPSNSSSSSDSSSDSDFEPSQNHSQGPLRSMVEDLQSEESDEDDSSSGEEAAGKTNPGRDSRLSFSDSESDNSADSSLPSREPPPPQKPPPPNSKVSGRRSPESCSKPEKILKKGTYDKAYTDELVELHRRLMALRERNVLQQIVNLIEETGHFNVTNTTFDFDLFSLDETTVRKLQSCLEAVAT
Procedure, shortened: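 Leukemia cells (MOLM13, MV4;11, Jurkat) treated with degraders in DMSO at 0–10 μM for 6 h or 24 h, or at 4 μM (MV4;11) / 8 μM (MOLM13) over 12–36 h. ENL levels read by Western blot of total lysates, GAPDH/β-actin loading controls; DMSO vehicle control.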

GAS41 = target: T2, GAS41 (Homo sapiens, UniProt O95619); test: Western blot of GAS41 protein level in MV4; 11 cells; format: cell-based; settings: 11 cells, 0.3, 1, 3, 10 and 30 μM for 24 h
T2 construct: host or cells: MV4;11
T2 sequence (O95619 whole entry): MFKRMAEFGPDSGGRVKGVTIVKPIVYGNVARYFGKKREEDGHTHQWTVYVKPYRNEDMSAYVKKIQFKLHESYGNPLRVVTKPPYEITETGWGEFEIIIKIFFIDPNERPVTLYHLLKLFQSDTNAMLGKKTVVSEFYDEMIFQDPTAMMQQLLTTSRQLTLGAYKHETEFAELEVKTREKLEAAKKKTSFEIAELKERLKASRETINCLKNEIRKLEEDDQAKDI
Experimental: MV4; 11 cells were treated with LQ076-122, or LQ081-107 at 0.3, 1, 3, 10, and 30 μM for 24 h. DMSO treated cells were used as control. Cells were lysed and expression of ENL and GAS41 was assessed by Western analysis.
After ENL degrader treatment, cells were collected, lysed, and total cell lysates were used for Western blot. The following primary antibodies were used: ENL (Cell Signaling Technology), GAS41 (Santa Cruz), GAPDH (Santa Cruz), β-actin (Sigma). Blots were detected using HRP-conjugated secondary antibodies.

[1] = tested on: ENL-dependent MOLM13 leukemia cells; test: Cell viability (CellTiter-Glo), MOLM13 cells; format: cell-based; settings: MOLM13 cells, 0.5, 1, 2 and 4 μM for 72 h
Experimental: MV4; 11 (FIG. 13A), MOLM13 (FIG. 13B) and Jurkat (FIG. 13C) cells were seeded at 2×10^5 cells/mL density and treated with DMSO or indicated compounds 0.5, 1, 2 and 4 μM for 72 h. Cell viability was measured using CellTiter-Glo reagent (Promega) and relative cell viability was calculated by normalization to DMSO samples.
MV4; 11 or MOLM13 cells were seeded at 0.2×10^6 cells/mL density. Cells were treated with DMSO or ENL degraders at indicated concentrations. Each treatment was done in triplicates. After 72 h treatment, 100 μL of cell suspension from each treatment was mixed with 25 μL of CellTiter-Glo reagent (Promega) and incubated for 10 min before the luminescence signals were detected on a plate reader.

ENL target genes = test: RT-qPCR of ENL target genes in MV4; 11 cells; format: cell-based; settings: 11 cells, 1, 2 and 4 μM for 6, 12, 18 and 24 h
Experimental: MV4; 11 cells were treated with DMSO, or LQ076-122 at 1, 2, and 4 μM for 6, 12, 18 and 24 h. RT-qPCR analysis was performed to detect the mRNA levels of selected ENL target genes.
Total RNA was extracted using the RNeasy Plus kit (Qiagen) and reverse-transcribed using the iScript cDNA Synthesis kit (Bio-Rad). RT-qPCR was performed using the Power SYBR Green PCR Master Mix (Applied Biosystems) on the CFX96 Real-Time PCR system (Bio-Rad). Gene expressions were calculated following normalization to 18s rRNA amounts using the comparative cycle threshold (Ct) method.

MV4; 11 cells = test: Apoptosis assay (FITC Annexin V), MV4; 11 cells; format: cell-based; settings: 11 cells, 1, 2 and 4 μM for 24 h
Experimental: Apoptotic cells were measured by the FITC Annexin V Apoptosis Detection Kit (BD Biosciences).
MV4; 11 or MOLM13 cells were seeded at 0.2×10^6 cells/mL density. Cells were treated with DMSO or ENL degraders at indicated concentrations. Each treatment was done in triplicates. After 24 h treatment, cells were collected and washed with ice-cold PBS once and resuspended in 250 μL of 1× binding buffer containing 5 μL of FITC-Annexin V and PI (BD Biosciences). After 15 min incubation at room temperature in the dark, 250 μL of 1× binding buffer was added and flow cytometry analysis was performed.

[2] = In vivo pharmacokinetics (PK) study, plasma concentration; design: species or system C57BL/6 mice; settings: mice, single 50 mg/kg IP injection
Experimental: Three C57BL/6 mice at 6-8 weeks of age were used in PK study for each time point. After a single dose intraperitoneal (IP) injection of ENL degrader LQ076-122 (50 mg/kg), plasma concentrations of degrader were measured at 6 time points (0.5, 1, 2, 4, 8 and 12 h) from each test animal. The concentrations of LQ076-122 in plasma were maintained above 2 μM for 6 h with the maximum plasma concentration of about 6 μM.
The standard mouse PK study was conducted by Charles River Laboratories. Three C57BL/6 mice at 6-8 weeks of age were used for each time point. After a single dose intraperitoneal (IP) injection of ENL degrader (50 mg/kg), plasma concentrations of degrader were measured at […] (in hours: 0.5, 1, 2, 4, 8 and 12 h) from each test animal.

SMILES: Cc1ncsc1-c1ccc(CNC(=O)[C@@H]2C[C@@H](O)CN2C(=O)[C@@H](NC(=O)CCCCCCCCCCNC(=O)c2ccc(C(=O)Nc3ccc4[nH]c(CN5CCC[C@@H]5C)nc4c3)cc2)C(C)(C)C)cc1 [LQ076-122, N^1-(11-(((S)-1-((2S,4R)-4-hydroxy-2-((4-(4-methylthiazol-5-yl)benzyl)carbamoyl)pyrrolidin-1-yl)-3,3-dimethyl-1-oxobutan-2-yl)amino)-11-oxoundecyl)-N^4-(2-(((S)-2-methylpyrrolidin-1-yl)methyl)-1H-benzo[d]imidazol-5-yl)terephthalamide]
- reduction of ENL protein levels (ENL; 0-8 μM for 24 h): reduced ENL protein levels in a concentration-dependent manner
- reduction of ENL protein levels, time course (ENL; 8 μM for 12, 16, 20, 24 and 36 h): reduced ENL protein levels in a time-dependent manner
- reduction of GAS41 protein level (GAS41): but not the level of another YEATS domain-containing protein GAS41
- suppression of cell growth (relative cell viability) [1]: selectively suppressed cell growth
- ENL target gene expression (mRNA levels) (ENL target genes): reduced ENL target gene expression in a concentration- and time-dependent manner
- induction of apoptosis (MV4; 11 cells): induced apoptosis
- concentration in plasma maintained for 6 h [2]: above 2 μM
- maximum plasma concentration [2]: about 6 μM
